Target: His-labeled STING (Homo sapiens, UniProt Q86WV6)
Experiment: Microscale thermophoresis (MST) binding assay
Conditions: for Dissociation Constant: MST, incubating with 50 nM 2,3-cGAMP; for Confidence: confidence class by MST shift units
Description: Nanotemper Monolith NT.115 labeled thermophoresis machine was used with standard treated capillary tubes using samples comprised of labeled protein and titrations of small molecule in 1×PBS. […] Detection of the protein was performed using the blue detection channel with LED excitation power set to 90% and MST set to high allowing 3 s prior to MST on to check for initial fluorescence differences, 25 s for thermophoresis, and 3 s for regeneration after MST off.
Detection of the protein was performed using the blue detection channel with LED excitation power set to 90% and MST set to high allowing 3 s prior to MST on to check for initial fluorescence differences, 25 s for thermophoresis, and 3 s for regeneration after MST off. Analysis was performed using M.O. Affinity Analysis Software with difference between initial fluorescence measured in the first 5 s as compared with thermophoresis at 15 s at 15 different analyte concentrations ranging from 100 zM to 100 μM and exported into Graphpad Prism v.8 using a Log inhibitor v. response 4 parameter fit.
Confidence is categorized as follows: 1=low confidence (<2 MST shift unit−non-statistical); 2=mid confidence (2-3 MST shift units−intermediate); 3=high confidence ([…]−statistical). Dissociation constants are categorized as follows: A<1 μM; 1 μM≤B<100 μM; […]; 10 μM≤D<100 μM.
Reference compounds were assayed using the same protocol.

Chain of His-labeled STING (Q86WV6 whole entry H232R): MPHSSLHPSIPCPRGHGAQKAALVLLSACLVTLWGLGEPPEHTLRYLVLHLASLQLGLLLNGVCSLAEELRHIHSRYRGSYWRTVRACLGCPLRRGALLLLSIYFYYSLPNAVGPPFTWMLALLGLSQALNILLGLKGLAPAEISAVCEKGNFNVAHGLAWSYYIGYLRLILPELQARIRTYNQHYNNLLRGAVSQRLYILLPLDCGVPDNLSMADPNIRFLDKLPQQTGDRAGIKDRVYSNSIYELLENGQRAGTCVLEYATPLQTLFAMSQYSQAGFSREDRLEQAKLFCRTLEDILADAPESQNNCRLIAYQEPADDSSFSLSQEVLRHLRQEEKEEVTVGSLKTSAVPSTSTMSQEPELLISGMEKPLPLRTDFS

| Structure (SMILES) | Dissociation Constant | Confidence |
| --- | --- | --- |
| Cc1cccc(Nc2ncccc2C(=O)OCC(O)CO)c1C (stereo not drawn) [Compound 48] | No Binding | 1 (1=low confidence (<2 MST shift unit−non-statistical)) |
| Cc1c(Cl)cccc1Nc1ncccc1C(=O)OCCCCOC(=O)c1cccnc1Nc1cccc(Cl)c1C [Compound 49] |  | 1 (1=low confidence (<2 MST shift unit−non-statistical)) |
| Cc1c(Cl)cccc1Nc1ncccc1CO [Compound 4] |  | 2 (2=mid confidence (2-3 MST shift units−intermediate)) |
| Cc1c(Cl)cccc1Nc1ncccc1C(=O)OCCCOC(=O)c1cccnc1Nc1cccc(Cl)c1C [Compound 41] |  | 1 (1=low confidence (<2 MST shift unit−non-statistical)) |
| Cc1c(Br)cccc1Nc1ncccc1C(=O)O [Compound 23] |  | 3 (3=high confidence (>2 MST shift units−statistical)) |
| COC(=O)c1cccnc1Nc1cccc(F)c1C [Compound 44] |  | 1 (1=low confidence (<2 MST shift unit−non-statistical)) |
| C=CCNC(=O)c1cccnc1Nc1cccc(Cl)c1C [Compound 17] |  | 1 (1=low confidence (<2 MST shift unit−non-statistical)) |
| Cc1c(Cl)cccc1Nc1ccccc1C(=O)O [Compound 36, Tolfenamic acid, reference compound] | No Binding | 1 (1=low confidence (<2 MST shift unit−non-statistical)) |
| Cc1c(Br)cccc1Nc1ncccc1C(=O)OCC(O)CO (stereo not drawn) [Compound 42] |  | 2 (2=mid confidence (2-3 MST shift units−intermediate)) |
| Cc1cccc(Nc2ccccc2C(=O)OCC(O)CO)c1C (stereo not drawn) [Compound 46] | No Binding | 1 (1=low confidence (<2 MST shift unit−non-statistical)) |
| CCCCC(=O)c1cccnc1Nc1cccc(Cl)c1C [Compound 21] |  | 2 (2=mid confidence (2-3 MST shift units−intermediate)) |
| Cc1c(Cl)cccc1Nc1ncccc1COCC(O)CO (stereo not drawn) [Compound 1] |  | 1 (1=low confidence (<2 MST shift unit−non-statistical)) |
| Cc1c(Cl)cccc1Nc1ncccc1C(=O)OCCCCCOC(=O)c1cccnc1Nc1cccc(Cl)c1C [Compound 50] |  | 3 (3=high confidence (>2 MST shift units−statistical)) |
| CCCOC(=O)c1cccnc1Nc1cccc(Cl)c1C [Compound 11] |  | 1 (1=low confidence (<2 MST shift unit−non-statistical)) |
| Cc1cccc(Nc2ncccc2C(=O)O)c1C [Compound 47] | No Binding | 1 (1=low confidence (<2 MST shift unit−non-statistical)) |
| CNC(=O)c1cccnc1Nc1cccc(Cl)c1C [Compound 14] |  | 2 (2=mid confidence (2-3 MST shift units−intermediate)) |
| Cc1c(Nc2ncccc2C(=O)O)cccc1C(F)(F)F [Compound 27] |  | 3 (3=high confidence (>2 MST shift units−statistical)) |
| Cc1c(Cl)cccc1Nc1ncccc1C(=O)OCC(O)CO (stereo not drawn) [Compound 19] |  | 1 (1=low confidence (<2 MST shift unit−non-statistical)) |
| NC(=O)NC1NC(=O)NC1=O (stereo not drawn) [Compound 52] |  | 3 (3=high confidence (>2 MST shift units−statistical)) |
| COC(=O)c1cccnc1Nc1cccc(Cl)c1C [Compound 9] |  | 3 (3=high confidence (>2 MST shift units−statistical)) |
| COC(=O)c1cccnc1Nc1cccc(Br)c1C [Compound 24] |  | 1 (1=low confidence (<2 MST shift unit−non-statistical)) |
| C#CCOC(=O)c1cccnc1Nc1cccc(Cl)c1C [Compound 13] |  | 2 (2=mid confidence (2-3 MST shift units−intermediate)) |
| CCNC(=O)c1cccnc1Nc1cccc(Cl)c1C [Compound 15] |  | 1 (1=low confidence (<2 MST shift unit−non-statistical)) |
| CCCNC(=O)c1cccnc1Nc1cccc(Cl)c1C [Compound 16] |  | 2 (2=mid confidence (2-3 MST shift units−intermediate)) |
| Cc1cccc(Nc2ccccc2C(=O)O)c1C [Compound 45] | No Binding | 1 (1=low confidence (<2 MST shift unit−non-statistical)) |
| Cc1c(F)cccc1Nc1ncccc1C(=O)OCC(O)CO (stereo not drawn) [Compound 43] |  | 1 (1=low confidence (<2 MST shift unit−non-statistical)) |
| CCOC(=O)c1cccnc1Nc1cccc(Cl)c1C [Compound 10] | Low R^2 | 1 (1=low confidence (<2 MST shift unit−non-statistical)) |
